{"source": "patent US20050112555A1", "about": "“Cytidine deaminase activators, deoxycytidine deaminase activators, Vif antagonists, and methods of screening for molecules thereof” (priority 2003, published 2005)", "system": "intracellular CEM15", "test": "Western blot of CEM15 abundance after co-expression of CEM15 and Vif in 293T cells", "format": "cell-based, human", "settings": "within 36-48 h post-transfection", "description": "CEM15 abundance can be quantified by western blotting as described above. Small molecules that bind to any of the aforementioned peptides can be evaluated for their ability to protect or restore CEM15 abundance using the aforementioned western blotting systems of whole cell extracts of cells that have been transfected with CEM15 and Vif wherein these proteins are co-expressed in 293T cells (conditions that result in CEM15 destruction) and evaluated (by western blotting of cell extracts) for the ability of VDA peptides of varying size and sequence to restore CEM15 abundance. Co-expression of CEM15 and Vif by transfection in 293T cells results ˜99% ablation of intracellular CEM15 within 36-48 h post-transfection. […] All peptides are tested according to this schedule. Expression of CEM15 and Vif are driven from the CMV promoter of pcDNA3 plasmids."}
{"substance": "Vif: HIV-1 viral infectivity factor, SEQ ID NO: 7; induces degradation of CEM15", "values": [{"measurement": "ablation of intracellular CEM15", "value": "~99", "unit": "%"}]}
